From the supplement of paper PMC10307832

Tests used:
Assay in all cases: relative viability (nuclei count vs DMSO), 5 days (fraction); higher = more cells survive
[1] = test system: NCI-H1915
Outline: (§1)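 The day after seeding in 1536-well plates, lung cancer cell lines were treated by pin tool with a single drug, or with a fixed anchor-drug dose together with five library-drug doses (not always all listed) in √10 steps. After 5 days, a combined fix-and-stain solution (final 0.05% Triton X-100, 1% formaldehyde, 1 ug/ml Hoechst) was added. Nuclei counted on 4× images gave relative viability as treated counts over vehicle counts, reported as the median of duplicate plates.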

[2] = test system: SK-LU-1
Outline: as §1

[3] = test system: A-427
Outline: as §1

[4] = test system: HCC-366
Outline: as §1

[5] = test system: NCI-H1355
Outline: as §1

[6] = test system: NCI-H23
Outline: as §1

[7] = test system: NCI-H1437
Outline: as §1

[8] = test system: NCI-H1792
Outline: as §1

[9] = test system: SW 1573
Outline: as §1

[10] = test system: NCI-H1395
Outline: as §1

[11] = test system: COR-L 105
Outline: as §1

[12] = test system: NCI-H727
Outline: as §1

[13] = test system: HOP-62
Outline: as §1

[14] = test system: NCI-H1755
Outline: as §1

[15] = test system: NCI-H1975
Outline: as §1

[16] = test system: EMC-BAC-2
Outline: as §1

[17] = test system: NCI-H2009
Outline: as §1

[18] = test system: NCI-H2228
Outline: as §1

[19] = test system: NCI-H460
Outline: as §1

[20] = test system: CAL-12T
Outline: as §1

[21] = test system: HARA
Outline: as §1

[22] = test system: LCLC-103H
Outline: as §1

[23] = test system: HCC-827
Outline: as §1

NC(=O)Nc1cc(-c2cccc(F)c2)sc1C(=O)N[C@H]1CCCNC1 [AZD7762] + CC(=O)c1c(C)c2cnc(Nc3ccc(N4CCNCC4)cn3)nc2n(C2CCCC2)c1=O [Palbociclib] (partner 0.5 µM) showed a relative viability ([1]; first compound 0.01 µM) of 0.552, a relative viability ([1]; first compound 0.03162 µM) of 0.608 and a relative viability ([1]; first compound 0.1 µM) of 0.606. For the same molecule, the relative viability ([1]; first compound 0.3162 µM) was 0.617, the relative viability ([1]; first compound 1 µM) was 0.563 and the relative viability ([2]; first compound 0.01 µM) was 0.364. The relative viability ([2]; first compound 0.03162 µM) was 0.418, the relative viability ([2]; first compound 0.1 µM) was 0.365 and the relative viability ([2]; first compound 0.3162 µM) was 0.232. The relative viability ([2]; first compound 1 µM) was 0.232, the relative viability ([3]; first compound 0.01 µM) was 0.568 and the relative viability ([3]; first compound 0.03162 µM) was 0.552. It also gave a relative viability ([3]; first compound 0.1 µM) of 0.595, a relative viability ([3]; first compound 0.3162 µM) of 0.563 and a relative viability ([3]; first compound 1 µM) of 0.334. It also gave a relative viability ([4]; first compound 0.01 µM) of 0.478, a relative viability ([4]; first compound 0.03162 µM) of 0.387 and a relative viability ([4]; first compound 0.1 µM) of 0.407. It also gave a relative viability ([4]; first compound 0.3162 µM) of 0.28, a relative viability ([4]; first compound 1 µM) of 0.106 and a relative viability ([5]; first compound 0.01 µM) of 0.415. The relative viability ([5]; first compound 0.03162 µM) was 0.389, the relative viability ([5]; first compound 0.1 µM) was 0.389 and the relative viability ([5]; first compound 0.3162 µM) was 0.418. For the same molecule, the relative viability ([5]; first compound 1 µM) was 0.39, the relative viability ([6]; first compound 0.01 µM) was 0.58 and the relative viability ([6]; first compound 0.03162 µM) was 0.629. It also gave a relative viability ([6]; first compound 0.1 µM) of 0.73, a relative viability ([6]; first compound 0.3162 µM) of 0.456 and a relative viability ([6]; first compound 1 µM) of 0.281. For the same molecule, the relative viability ([7]; first compound 0.01 µM) was 0.357, the relative viability ([7]; first compound 0.03162 µM) was 0.293 and the relative viability ([7]; first compound 0.1 µM) was 0.379. It also gave a relative viability ([7]; first compound 0.3162 µM) of 0.41, a relative viability ([7]; first compound 1 µM) of 0.35 and a relative viability ([8]; first compound 0.01 µM) of 0.725. It also gave a relative viability ([8]; first compound 0.03162 µM) of 0.705, a relative viability ([8]; first compound 0.1 µM) of 0.677 and a relative viability ([8]; first compound 0.3162 µM) of 0.731. It also gave a relative viability ([8]; first compound 1 µM) of 0.785, a relative viability ([9]; first compound 0.01 µM) of 0.424 and a relative viability ([9]; first compound 0.03162 µM) of 0.453. For the same molecule, the relative viability ([9]; first compound 0.1 µM) was 0.466, the relative viability ([9]; first compound 0.3162 µM) was 0.377 and the relative viability ([9]; first compound 1 µM) was 0.314. It also gave a relative viability ([10]; first compound 0.01 µM) of 0.642, a relative viability ([10]; first compound 0.03162 µM) of 0.68 and a relative viability ([10]; first compound 0.1 µM) of 0.56. For the same molecule, the relative viability ([10]; first compound 0.3162 µM) was 0.456, the relative viability ([10]; first compound 1 µM) was 0.363 and the relative viability ([11]; first compound 0.01 µM) was 0.414. The relative viability ([11]; first compound 0.03162 µM) was 0.415, the relative viability ([11]; first compound 0.1 µM) was 0.367 and the relative viability ([11]; first compound 0.3162 µM) was 0.386. It also gave a relative viability ([11]; first compound 1 µM) of 0.372, a relative viability ([12]; first compound 0.01 µM) of 0.693 and a relative viability ([12]; first compound 0.03162 µM) of 0.669. For the same molecule, the relative viability ([12]; first compound 0.1 µM) was 0.669, the relative viability ([12]; first compound 0.3162 µM) was 0.642 and the relative viability ([12]; first compound 1 µM) was 0.559. It also gave a relative viability ([13]; first compound 0.01 µM) of 0.476, a relative viability ([13]; first compound 0.03162 µM) of 0.394 and a relative viability ([13]; first compound 0.1 µM) of 0.545. It also gave a relative viability ([13]; first compound 0.3162 µM) of 0.484, a relative viability ([13]; first compound 1 µM) of 0.487 and a relative viability ([14]; first compound 0.01 µM) of 0.483. It also gave a relative viability ([14]; first compound 0.03162 µM) of 0.488, a relative viability ([14]; first compound 0.1 µM) of 0.466 and a relative viability ([14]; first compound 0.3162 µM) of 0.495. It also gave a relative viability ([14]; first compound 1 µM) of 0.442, a relative viability ([15]; first compound 0.01 µM) of 0.519 and a relative viability ([15]; first compound 0.03162 µM) of 0.549. It also gave a relative viability ([15]; first compound 0.1 µM) of 0.585, a relative viability ([15]; first compound 0.3162 µM) of 0.352 and a relative viability ([15]; first compound 1 µM) of 0.357. For the same molecule, the relative viability ([16]; first compound 0.01 µM) was 0.555, the relative viability ([16]; first compound 0.03162 µM) was 0.527 and the relative viability ([16]; first compound 0.1 µM) was 0.537. The relative viability ([16]; first compound 0.3162 µM) was 0.554, the relative viability ([16]; first compound 1 µM) was 0.541 and the relative viability ([17]; first compound 0.01 µM) was 0.155. It also gave a relative viability ([17]; first compound 0.03162 µM) of 0.214, a relative viability ([17]; first compound 0.1 µM) of 0.221 and a relative viability ([17]; first compound 0.3162 µM) of 0.175. For the same molecule, the relative viability ([17]; first compound 1 µM) was 0.13, the relative viability ([18]; first compound 0.01 µM) was 0.787 and the relative viability ([18]; first compound 0.03162 µM) was 0.937. The relative viability ([18]; first compound 0.1 µM) was 0.896, the relative viability ([18]; first compound 0.3162 µM) was 0.283 and the relative viability ([18]; first compound 1 µM) was 0.156. The relative viability ([19]; first compound 0.01 µM) was 0.254, the relative viability ([19]; first compound 0.03162 µM) was 0.117 and the relative viability ([19]; first compound 0.1 µM) was 0.0606. It also gave a relative viability ([19]; first compound 0.3162 µM) of 0.0344, a relative viability ([19]; first compound 1 µM) of 0.0224 and a relative viability ([20]; first compound 0.01 µM) of 0.519. It also gave a relative viability ([20]; first compound 0.03162 µM) of 0.502, a relative viability ([20]; first compound 0.1 µM) of 0.412 and a relative viability ([20]; first compound 0.3162 µM) of 0.194. It also gave a relative viability ([20]; first compound 1 µM) of 0.129, a relative viability ([21]; first compound 0.01 µM) of 0.308 and a relative viability ([21]; first compound 0.03162 µM) of 0.245. The relative viability ([21]; first compound 0.1 µM) was 0.254, the relative viability ([21]; first compound 0.3162 µM) was 0.31 and the relative viability ([21]; first compound 1 µM) was 0.265. It also gave a relative viability ([22]; first compound 0.01 µM) of 0.438, a relative viability ([22]; first compound 0.03162 µM) of 0.479 and a relative viability ([22]; first compound 0.1 µM) of 0.639. For the same molecule, the relative viability ([22]; first compound 0.3162 µM) was 0.449, the relative viability ([22]; first compound 1 µM) was 0.544 and the relative viability ([23]; first compound 0.01 µM) was 0.544. For the same molecule, the relative viability ([23]; first compound 0.03162 µM) was 0.469, the relative viability ([23]; first compound 0.1 µM) was 0.486 and the relative viability ([23]; first compound 0.3162 µM) was 0.498. For the same molecule, the relative viability ([23]; first compound 1 µM) was 0.303.
